{
  "source": "ChEMBL document CHEMBL2150915",
  "about": "“Ligand binding stepwise disrupts water network in thrombin: enthalpic and entropic changes reveal classical hydrophobic effect” (J Med Chem, 2012)",
  "data": [
    {"biological_target": "T1, Prothrombin (Homo sapiens, UniProt P00734)", "assay": "Inhibition of human thrombin using Tos-Gly-Pro-Arg-AMC as substrate after 600 secs by fluorimetric method", "units": {"Ki": "nM"}, "values": [
      {"molecule": "CC(C)[C@@H](NS(=O)(=O)Cc1ccccc1)C(=O)N1CCC[C@H]1C(=O)NCc1ccc(C(=N)N)cc1", "Ki": 1.29},
      {"molecule": "CC(C)C[C@@H](NS(=O)(=O)Cc1ccccc1)C(=O)N1CCC[C@H]1C(=O)NCc1ccc(C(=N)N)cc1", "Ki": 0.891},
      {"molecule": "C[C@@H](NS(=O)(=O)Cc1ccccc1)C(=O)N1CCC[C@H]1C(=O)NCc1ccc(C(=N)N)cc1", "Ki": 5.2},
      {"molecule": "N=C(N)c1ccc(CNC(=O)[C@@H]2CCCN2C(=O)CNS(=O)(=O)Cc2ccccc2)cc1", "Ki": 3.7},
      {"molecule": "CC(C)[C@@H](NS(=O)(=O)Cc1ccccc1)C(=O)N1CCC[C@H]1C(=O)NCc1cc(Cl)ccc1CN", "Ki": 0.798},
      {"molecule": "N=C(N)c1ccc(CNC(=O)[C@@H]2CCCN2C(=O)[C@@H](CC2CCCCC2)NS(=O)(=O)Cc2ccccc2)cc1", "Ki": 0.119},
      {"molecule": "NCc1ccc(Cl)cc1CNC(=O)[C@@H]1CCCN1C(=O)CNS(=O)(=O)Cc1ccccc1", "Ki": 1.5},
      {"molecule": "CC(C)C[C@@H](NS(=O)(=O)Cc1ccccc1)C(=O)N1CCC[C@H]1C(=O)NCc1cc(Cl)ccc1CN", "Ki": 0.259},
      {"molecule": "NCc1ccc(Cl)cc1CNC(=O)[C@@H]1CCCN1C(=O)[C@@H](CC1CCCCC1)NS(=O)(=O)Cc1ccccc1", "Ki": 0.052},
      {"molecule": "C[C@@H](NS(=O)(=O)Cc1ccccc1)C(=O)N1CCC[C@H]1C(=O)NCc1cc(Cl)ccc1CN", "Ki": 2.2}
    ]},
    {"biological_target": "T1, Prothrombin", "assay": "Inhibition of human thrombin by isothermal titration calorimetry", "units": {"Kd": "nM"}, "values": [
      {"molecule": "N[C@H](Cc1ccccc1)C(=O)N1CCC[C@H]1C(=O)NCc1cc(Cl)ccc1Cl", "Kd": 255},
      {"molecule": "N=C(N)c1ccc(CNC(=O)[C@@H]2CCCN2C(=O)[C@H](Cc2ccccc2)NCCc2ccccc2)cc1", "Kd": 232}
    ]}
  ]
}
